# Test results reported in US9085750B2, “Stabilized subtilisin composition” (Novozymes A/S, priority 2011, dated 2015).
# Legend:
# Assay type in all cases: biochemical
# Subtilisin: Savinase = biological target: T1, Subtilisin: Savinase (Lederbergia lenta, UniProt P29600); assay: Remaining subtilisin activity after storage in the Table 3 detergent; conditions: 2 weeks at 35° C.
# T1 construct: purchased Novozymes A/S Savinase 16L
# T1 sequence (P29600 1-269): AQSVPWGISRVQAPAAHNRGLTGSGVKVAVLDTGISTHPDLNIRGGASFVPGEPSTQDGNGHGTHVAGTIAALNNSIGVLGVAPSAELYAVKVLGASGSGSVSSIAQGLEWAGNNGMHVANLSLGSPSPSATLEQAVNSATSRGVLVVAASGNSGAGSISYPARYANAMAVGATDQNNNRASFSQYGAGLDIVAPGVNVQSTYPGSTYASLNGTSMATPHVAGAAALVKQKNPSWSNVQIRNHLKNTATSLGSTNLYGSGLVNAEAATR
# Protocol: (§1) General experimental details: Detergents with a subtilisin (Savinase 16L) and a lipase (Lipex 100L) with or without X—B^1—NH—CHR—CHOH—SO3Na (the peptide aldehyde hydrosulfite adduct can be added separately to the detergent containing the subtilisin) are placed in closed glasses at −18° C.; 35° C. and 40° C. Residual activities of protease and lipase are measured after different times using standard analytical methods (protease by hydrolysis of N,N-dimethylcasein at 40° C., pH 8.3 and lipase by hydrolysis of pNp-valerate at 40° C., pH 7.7). Similar trials can be made with addition of subtilisin to a detergent already containing suitable amounts of the peptide aldehyde hydrosulfite adduct. Similar results can be obtained with all the mentioned peptide aldehyde bisulfite adducts.
# (§2) As an example of a detergent composition with a stabilized subtilisin formulation, the composition described in Table 3 was made.
# (§3) In Table 4 are shown the results measured after two weeks incubation at 35° C. in the detergent described in Table 3.
# Lipase: Lipex 100L = assay: Remaining lipase activity after storage with subtilisin in the Table 3 detergent (hydrolysis of pNp-valerate); conditions: 2 weeks at 35° C.
# Protocol: as §1, §2, §3
# [1] = biological target: T2, subtilisin (Savinase 16L) (Lederbergia lenta, UniProt P29600); assay: Remaining protease activity of Savinase 16L after storage in the Table 1 detergent (hydrolysis of N,N-dimethylcasein); conditions: one week at 40° C.
# T2 construct: purchased Novozymes A/S Savinase 16L
# T2 sequence (P29600 1-269): T1 sequence (P29600 1-269)
# Protocol: as §1
# As an example of detergent composition with a stabilized subtilisin formulation, the composition described in Table 1 was made.
# In Table 2 are shown the results obtained with X=Cbz-Gly; B^1=Ala; R═—CH2-p(C6H4)—OH; stability measured after one week incubation at 40° C. in the detergent described in Table 1.
# Lipase: Lipoclean 2000L = assay: Remaining lipase activity after storage with subtilisin in the Table 5 detergent
# Protocol: as §1
# (§4) As yet another example of a detergent with a stabilized subtilisin formulation, the composition described in Table 5 was made.
# (§5) In Table 6 are shown the results measured after 4 weeks incubation at 37° C., and after 8 weeks incubation at 30° C., in the detergent described in Table 5.
# [2] = test system: Subtilisin Liquanase 2.5L; assay: Remaining subtilisin activity after storage in the Table 5 detergent, Liquanase 2.5L; conditions: 34 ppm inhibitor in detergent of Table 5
# Protocol: as §1, §4, §5
# Subtilisin Coronase 48L = assay: Remaining subtilisin activity after storage in the Table 5 detergent, Coronase 48L; conditions: 59 ppm inhibitor in detergent of Table 5
# Protocol: as §1, §4, §5
SMILES,"remaining activity at 128 ppm (Subtilisin: Savinase; 128 ppm inhibitor in detergent of Table 3, read-out: Remaining activity of Subtilisin (protease))",Remaining activity of Lipase (Lipase: Lipex 100L; 128 ppm inhibitor in detergent of Table 3 with Savinase),Remaining activity of Subtilisin (protease) (Subtilisin: Savinase; 21 ppm inhibitor in detergent of Table 3),Protease stability (remaining activity) ([1]; 7 ppm inhibitor in detergent of Table 1),Protease stability (remaining activity) ([1]; 14 ppm inhibitor in detergent of Table 1),Protease stability (remaining activity) ([1]; 18 ppm inhibitor in detergent of Table 1),"Remaining activity of Lipase, 8 weeks at 30° C. (Lipase: Lipoclean 2000L; with Coronase 48L, 59 ppm inhibitor in detergent of Table 5)","Remaining activity of Lipase, 8 weeks at 30° C. (Lipase: Lipoclean 2000L; with Liquanase 2.5L, 34 ppm inhibitor in detergent of Table 5)","Remaining activity of Subtilisin, 4 weeks at 37° C. [2]","Remaining activity of Subtilisin, 4 weeks at 37° C. (Subtilisin Coronase 48L)",Remaining activity of Lipase (Lipase: Lipex 100L; 21 ppm inhibitor in detergent of Table 3 with Savinase)
"O=Cc1ccc(B(O)O)cc1 [4-formylphenyl boronic acid, reference compound]",8%,2%,,,,,,,,,
C[C@H](NC(=O)CNC(=O)OCc1ccccc1)C(=O)N[C@@H](Cc1ccc(O)cc1)C(O)S(=O)(=O)[O-].[Na+] (some centres unmarked) [Cbz-GA-NHCH(CH2C6H4OH)C(OH)(SO3M)-H],,,63%,52%,77%,80%,61%,27%,83%,80%,18%
